Source: US10059701B2 (Merck Patent GmbH, priority 2015, dated 2018)

Assays:
IRAK1 = target: T1, IRAK1 (Homo sapiens, UniProt P51617); test: IRAK1 enzymatic assay (ADP-Glo luminescence); assay type: biochemical; conditions: purified human recombinant His-TEV-IRAK1 (194-712)
T1 construct: His-TEV-IRAK1 (194-712); His (N); TEV cleavage site (N)
Method in brief: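 Recombinant human His-TEV-IRAK1 (194-712), 0.3 μg/ml, preincubated 15 min at RT with compounds (10 μM to 0.5 nM) in 50 mM Hepes pH 7.0, 10 mM MgCl2, 2 mM DTT, 0.1% BSA. ATP-started reaction run 2 hours at RT; ADP formed from ATP hydrolysis/autophosphorylation read by ADP-Glo luminescence.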

IRAK4 = target: T2, IRAK4 (Homo sapiens, UniProt Q9NWZ3); test: IRAK4 enzymatic assay (ADP-Glo luminescence); assay type: biochemical; conditions: purified human recombinant His-TEV-IRAK4 (1-460), ATP 2 μM
T2 construct: His-TEV-IRAK4 (1-460); His (N); TEV cleavage site (N)
T2 sequence (Q9NWZ3 1-460): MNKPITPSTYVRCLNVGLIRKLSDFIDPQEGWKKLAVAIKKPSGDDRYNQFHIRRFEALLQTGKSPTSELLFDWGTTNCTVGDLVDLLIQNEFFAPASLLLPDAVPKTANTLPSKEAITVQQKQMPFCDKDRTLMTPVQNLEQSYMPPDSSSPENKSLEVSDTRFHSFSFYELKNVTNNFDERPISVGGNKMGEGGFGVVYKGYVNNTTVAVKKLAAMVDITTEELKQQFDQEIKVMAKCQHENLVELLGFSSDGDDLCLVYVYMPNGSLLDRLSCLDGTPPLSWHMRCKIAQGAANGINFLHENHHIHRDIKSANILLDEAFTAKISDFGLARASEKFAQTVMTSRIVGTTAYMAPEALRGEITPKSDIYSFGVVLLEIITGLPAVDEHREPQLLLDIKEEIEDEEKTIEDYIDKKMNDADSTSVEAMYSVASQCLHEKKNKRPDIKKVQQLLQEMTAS
Method in brief: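 Recombinant His-TEV-IRAK4 (1-460) at 0.3 μg/ml preincubated 15 min at RT with compounds (10 μM to 0.5 nM) in Hepes pH 7.0 buffer with MgCl2/MnCl2. Reaction started with 2 μM ATP and 300 nM STK1-biotin peptide, run 2 h at RT. ADP formed read by ADP-Glo luminescence.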

T1 sequence (P51617 194-712): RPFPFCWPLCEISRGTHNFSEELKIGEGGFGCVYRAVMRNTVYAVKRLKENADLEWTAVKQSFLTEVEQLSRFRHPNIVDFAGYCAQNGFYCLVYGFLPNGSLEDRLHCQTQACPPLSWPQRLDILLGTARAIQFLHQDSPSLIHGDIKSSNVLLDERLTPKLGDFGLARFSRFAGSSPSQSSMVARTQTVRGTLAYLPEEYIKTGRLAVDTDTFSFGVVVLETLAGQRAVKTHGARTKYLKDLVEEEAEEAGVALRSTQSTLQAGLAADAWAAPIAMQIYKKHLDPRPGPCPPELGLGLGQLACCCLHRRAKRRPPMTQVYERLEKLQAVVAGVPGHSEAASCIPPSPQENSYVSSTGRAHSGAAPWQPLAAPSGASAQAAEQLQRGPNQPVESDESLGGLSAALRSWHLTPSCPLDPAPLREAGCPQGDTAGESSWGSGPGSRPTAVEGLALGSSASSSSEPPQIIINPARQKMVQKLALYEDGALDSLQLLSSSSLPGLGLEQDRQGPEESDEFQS

Structure (SMILES)	IC50 (IRAK1) [nM]	IC50 (IRAK4) [nM]
[2H]C([2H])([2H])Oc1cc2c(cc1N1CCOCC1=O)[nH]/c(=N\C(=O)c1cccc(C(F)F)c1)n2CCCO [Example 203, (E)-3-(difluoromethyl)-N-(1-(3-hydroxypropyl)-6-(trideuteromethoxy)-5-(3-oxomorpholino)-1H-benzo[d]imidazol-2(3H)-ylidene)benzamide]	≤ 100	≤ 100
[2H]C([2H])([2H])Oc1cc2c(cc1N1CCCOC1=O)[nH]/c(=N\C(=O)c1cccc(C(F)(F)F)c1)n2CCCO [Example 204, (E)-N-(1-(3-hydroxypropyl)-6-(trideuteromethoxy)-5-(2-oxo-1,3-oxazinan-3-yl)-1H-benzo[d]imidazol-2(3H)-ylidene)-3-(trifluoromethyl)benzamide]	≤ 100	≤ 100
[2H]C([2H])([2H])Oc1cc2c(cc1N1CCCOC1=O)[nH]/c(=N\C(=O)c1cccc(C(F)F)c1)n2CCCO [Example 205, (E)-3-(difluoromethyl)-N-(1-(3-hydroxypropyl)-6-(trideuteromethoxy)-5-(2-oxo-1,3-oxazinan-3-yl)-1H-benzo[d]imidazol-2(3H)-ylidene)benzamide]	≤ 100	≤ 100
COc1cc2c(cc1N1CCCOC1=O)[nH]/c(=N\C(=O)c1cccc(C(F)(F)F)c1)n2CCCO [Example 206, (E)-N-(1-(3-hydroxypropyl)-6-methoxy-5-(2-oxo-1,3-oxazinan-3-yl)-1H-benzo[d]imidazol-2(3H)-ylidene)-3-(trifluoromethyl)benzamide]	≤ 100	≤ 100
COc1cc2c(cc1N1CCCOC1=O)[nH]/c(=N\C(=O)c1cccc(C(F)F)c1)n2CCCO [Example 207, (E)-3-(difluoromethyl)-N-(1-(3-hydroxypropyl)-6-methoxy-5-(2-oxo-1,3-oxazinan-3-yl)-1H-benzo[d]imidazol-2(3H)-ylidene)benzamide]	≤ 100	≤ 100
O=C(/N=c1\[nH]c2cc(N3CCOCC3=O)c(C3CC3)cc2n1CCCO)c1cccc(C(F)(F)F)c1 [Example 208, (E)-N-(6-cyclopropyl-1-(3-hydroxypropyl)-5-(3-oxomorpholino)-1H-benzo[d]imidazol-2(3H)-ylidene)-3-(trifluoromethyl)benzamide]	≤ 100	≤ 100
O=C(/N=c1\[nH]c2cc(N3CCOCC3=O)c(C3CC3)cc2n1CCCO)c1cccc(C(F)F)c1 [Example 209, (E)-N-(6-cyclopropyl-1-(3-hydroxypropyl)-5-(3-oxomorpholino)-1H-benzo[d]imidazol-2(3H)-ylidene)-3-(difluoromethyl)benzamide]	≤ 100	≤ 100
O=C(/N=c1\[nH]c2cc(N3CCOCC3=O)cc(F)c2n1CCCO)c1cccc(C(F)(F)F)c1 [Example 210, (E)-N-(7-fluoro-1-(3-hydroxypropyl)-5-(3-oxomorpholino)-1H-benzo[d]imidazol-2(3H)-ylidene)-3-(trifluoromethyl)benzamide]	100 to 1000	≤ 100
O=C(/N=c1\[nH]c2cc(N3CCOCC3=O)c(OC(F)F)cc2n1CCCO)c1cccc(C(F)(F)F)c1 [Example 211, (E)-N-(6-(difluoromethoxy)-1-(3-hydroxypropyl)-5-(3-oxomorpholino)-1H-benzo[d]imidazol-2(3H)-ylidene)-3-(trifluoromethyl)benzamide]	≤ 100	≤ 100
O=C(/N=c1\[nH]c2cc(N3C(=O)CN4CCC3CC4)ccc2n1CCCO)c1cccc(C(F)F)c1 [Example 212, (E)-3-(difluoromethyl)-N-(1-(3-hydroxypropyl)-5-(3-oxo-1,4-diazabicyclo[3.2.2]nonan-4-yl)-1H-benzo[d]imidazol-2(3H)-ylidene)benzamide]	100 to 1000	≤ 100
O=C(/N=c1\[nH]c2cc(N3CC4CC(N4)C3=O)ccc2n1CCCO)c1cccc(C(F)F)c1 (stereo not drawn) [Example 213, (E)-3-(difluoromethyl)-N-(1-(3-hydroxypropyl)-5-(2-oxo-3,6-diazabicyclo[3.1.1]heptan-3-yl)-1H-benzo[d]imidazol-2(3H)-ylidene)benzamide]	100 to 1000	≤ 100
O=C(/N=c1\[nH]c2cc(N3CC4CCC(C3=O)N4C3CC3)ccc2n1CCCO)c1cccc(C(F)F)c1 (stereo not drawn) [Example 214, (E)-N-(5-(8-cyclopropyl-2-oxo-3,8-diazabicyclo[3.2.1]octan-3-yl)-1-(3-hydroxypropyl)-1H-benzo[d]imidazol-2(3H)-ylidene)-3-(difluoromethyl)benzamide]	100 to 1000	≤ 100
O=C(/N=c1\[nH]c2cc(N3CC4CCC(C3=O)N4C3CC3)ccc2n1CCCO)c1cccc(C(F)(F)F)c1 (stereo not drawn) [Example 215, (E)-N-(5-(8-cyclopropyl-2-oxo-3,8-diazabicyclo[3.2.1]octan-3-yl)-1-(3-hydroxypropyl)-1H-benzo[d]imidazol-2(3H)-ylidene)-3-(trifluoromethyl)benzamide]	> 1000	≤ 100
O=C(/N=c1\[nH]c2cc(N3CC4CC(N4)C3=O)ccc2n1CCCO)c1cccc(C(F)(F)F)c1 (stereo not drawn) [Example 216, (E)-N-(1-(3-hydroxypropyl)-5-(2-oxo-3,6-diazabicyclo[3.1.1]heptan-3-yl)-1H-benzo[d]imidazol-2(3H)-ylidene)-3-(trifluoromethyl)benzamide]	100 to 1000	≤ 100
O=C(/N=c1\[nH]c2cc(N3CC4CCC(O4)C3=O)ccc2n1CCCO)c1cccc(C(F)(F)F)c1 (stereo not drawn) [Example 217, (E)-N-(1-(3-hydroxypropyl)-5-(2-oxo-8-oxa-3-azabicyclo[3.2.1]octan-3-yl)-1H-benzo[d]imidazol-2(3H)-ylidene)-3-(trifluoromethyl)benzamide]	100 to 1000	≤ 100
CC1(C)CCOC(=O)N1c1ccc2c(c1)[nH]/c(=N\C(=O)c1cccc(C(F)F)c1)n2CCCO [Example 218, (E)-3-(difluoromethyl)-N-(5-(4,4-dimethyl-2-oxo-1,3-oxazinan-3-yl)-1-(3-hydroxypropyl)-1H-benzo[d]imidazol-2(3H)-ylidene)benzamide]	≤ 100	≤ 100
CC1(C)CCOC(=O)N1c1ccc2[nH]c(=NC(=O)c3cccc(C(F)F)c3)n(CCCO)c2c1 [Example 219]	100 to 1000	≤ 100
CC1(C)CCOC(=O)N1c1ccc2c(c1)[nH]/c(=N\C(=O)c1cccc(C(F)(F)F)c1)n2CCCO [Example 220, (E)-3-(trifluoromethyl)-N-(5-(4,4-dimethyl-2-oxo-1,3-oxazinan-3-yl)-1-(3-hydroxypropyl)-1H-benzo[d]imidazol-2(3H)-ylidene)benzamide]	≤ 100	≤ 100
CC1(C)CCOC(=O)N1c1ccc2[nH]c(=NC(=O)c3cccc(C(F)(F)F)c3)n(CCCO)c2c1 [Example 221]	100 to 1000	≤ 100
CC1(C)OCCN(c2ccc3c(c2)[nH]/c(=N\C(=O)c2cccc(C(F)F)c2)n3CCCO)C1=O [Example 222, (E)-3-(difluoromethyl)-N-(5-(2,2-dimethyl-3-oxomorpholino)-1-(3-hydroxypropyl)-1H-benzo[d]imidazol-2(3H)-ylidene)benzamide]	100 to 1000	≤ 100
CC1(C)OCCN(c2ccc3c(c2)[nH]/c(=N\C(=O)c2cccc(C(F)(F)F)c2)n3CCCO)C1=O [Example 223, (E)-3-(trifluoromethyl)-N-(5-(2,2-dimethyl-3-oxomorpholino)-1-(3-hydroxypropyl)-1H-benzo[d]imidazol-2(3H)-ylidene)benzamide]	≤ 100	≤ 100
